Test results published in patent publication EP0450065A1, “ANTIVIRAL AGENT” (priority 1988, dated 1990).

Key:
Format in all cases: cell-based
[1] = system: herpes simplex virus type 1 (HF strain); experiment: Control of CPE (cytopathic effect) manifestation in vero cells; parameters: key to Cytopathic effect [CPE] (3days) Average / Cytopathic effect [CPE] (5days) Average / Cytopathic effect [CPE] (6days) Average: CPE score: 0 none, 0.5 minute spots, 1 = 25%, 2 = 50%, 3 = ≥75% cells; key to Cytopathic effect [CPE] (3days) △CPE / Cytopathic effect [CPE] (5days) △CPE / Cytopathic effect [CPE] (3days) ΔCPE / Cytopathic effect [CPE] (6days) ΔCPE: ΔCPE = difference of average CPE score (0–3 scale) from control; details: for Cytopathic effect [CPE] (3days) △CPE / Cytopathic effect [CPE] (5days) △CPE / Cytopathic effect [CPE] (3days) ΔCPE / Cytopathic effect [CPE] (6days) ΔCPE: difference from control
Method: In vitro antiviral activity of Compound A against herpes simplex virus type 1 (HF strain) Compound A was tested for antiviral effect by the following two methods.
(§1) Vero cells cultured and grown in a monolayer on microplates to test for cytopathic effect due to viral infection, with solutions of Compound A diluted to varying ratios and solutions of virus diluted to varying ratios added severally thereto in a volume of 0.1 ml, were cultured under the conditions of 5% CO₂ and 37°C and were examined for CPE manifestation under a microscope. The observation was continued for five to six days.
(§2) The degree of CPE brought about by viral infection was rated on the five-point scale, wherein 3 stands for CPE observed on not less than 75% of cultured cells, 2 for CPE observed on 50% of cultured cells, 1 for CPE observed on 25% of cultured cells, 0.5 for occurrence of one to two extremely minute DPE spots, and 0 for perfect absence of recognizable CPE. The CPE scores obtained at the four holes in each microplate were averaged and the difference of the average from the average obtained in the control (omitting the treatment with a chemical) was reported as ΔCPE.
In vitro antiviral effect of Compound A against herpes simplex virus type 1 (HF strain) The test was carried out by following the procedure of Example 3.

[2] = system: herpes simplex virus type 2 (169 strain); experiment: as above; parameters: key to Cytopathic effect [CPE] (3days) Average / Cytopathic effect [CPE] (5days) Average / Cytopathic effect [CPE] (6days) Average: CPE score 0-3: 3 = ≥75% cells, 2 = 50%, 1 = 25%, 0 = none; key to Cytopathic effect [CPE] (3days) △CPE / Cytopathic effect [CPE] (5days) △CPE / Cytopathic effect [CPE] (6days) △CPE: difference of mean CPE score (0-3 scale) from untreated control; details: HSV-2 (169); for Cytopathic effect [CPE] (3days) △CPE / Cytopathic effect [CPE] (5days) △CPE / Cytopathic effect [CPE] (6days) △CPE: difference from control
Method: as §1, §2
In vitro antiviral activity of Compound A against herpes simplex virus type 2 (169 strain) The test was carried out by following the procedure of Example 3.

[3] = system: herpes simplex virus type 1 (KOS strain); experiment: as above; details: HSV-1 (KOS), Example 7; for Cytopathic effect [CPE] (3days) △CPE / Cytopathic effect [CPE] (5days) △CPE: difference from control
Method: as §1, §2
(§3) Antiviral activity of Compound A and Compound B against herpes simplex virus type 1 (KOS strain) The test was carried out by following the procedure of Example 3.

[4] = system: herpes simplex virus type 1 (KOS strain); experiment: 50% Tissue culture infective dose (TCID50), Read-Munch method, negative logarithm of virus dilution; parameters: key to Cytopathic effect [CPE] (5days) TCID50 / Cytopathic effect [CPE] (3days) TCID50: TCID50 as negative log of maximum virus dilution ratio; key to Cytopathic effect [CPE] (5days) △TCID50 / Cytopathic effect [CPE] (3days) △TCID50: difference from control TCID50, in negative log of virus dilution; details: HSV-1 (KOS), Example 7; for Cytopathic effect [CPE] (3days) △TCID50 / Cytopathic effect [CPE] (5days) △TCID50: difference from control
Method: The amount of virus infecting 50% of tissues (TCID₅₀) was determined by the Read-Munch method and expressed in negative logarithm of the maximum radio of dilution of virus. The difference of the amount thus determined from the amount found in the control (omitting the treatment with a chemical) was reported as ΔTCID₅₀. A sample whose ΔCPE's found on the last day of observation and on each of the days spent for the observation exceeded 1.0 was evaluated as effective.
as §3

[5] = system: herpes simplex virus type 1 (KOS strain); experiment: One-step growth of virus, plaque assay with vero cells; details: for Intracellular virus Average / Intracellular virus Control ratio % / Intracellular virus Control ratio -logT/C: 24 hours
Method: Antiviral activity of Compound A and Compound B against one-step growth of herpes simplex virus type 1 (KOS strain) Cells grown in a monolayer, with a sample of a given compound diluted in a varying ratio added, were pretreated for 15 minutes. Then, the pretreated cells were infected with the herpes simplex virus type 1 (KOS strain) at an infecting ratio of 0.25 and left standing for 24 hours. At the end of the standing, the intracellular and extracellular amounts of virus were determined by the plaque assay with vero cells.

[6] = 10 μg/ml, HSV-1 (HF), Example 3
[7] = 20 μg/ml, HSV-1 (HF), Example 3
[8] = 50 μg/ml, HSV-1 (HF), Example 3
[9] = 100 μg/ml, HSV-1 (HF strain), Example 5
[10] = 100 μg/ml, HSV-1 (HF), Example 3
[11] = 200 μg/ml, HSV-1 (HF strain), Example 5

K₅BW₁₂O₄₀.15H₂O [Compound A]
Cytopathic effect [CPE] (3days) Average ([1]; 5 μg/ml, HSV-1 (HF), Example 3): 1.25 | Cytopathic effect [CPE] (5days) Average ([1]; 5 μg/ml, HSV-1 (HF), Example 3): 1.75 | Cytopathic effect [CPE] (3days) △CPE ([1]; 5 μg/ml, HSV-1 (HF), Example 3): 0.25 | Cytopathic effect [CPE] (5days) △CPE ([1]; 5 μg/ml, HSV-1 (HF), Example 3): 0 | Cytopathic effect [CPE] (3days) Average [1, 6]: 1.25 | Cytopathic effect [CPE] (5days) Average [1, 6]: 1.25 | Cytopathic effect [CPE] (3days) △CPE [1, 6]: 0.25 | Cytopathic effect [CPE] (5days) △CPE [1, 6]: 0.5 | Cytopathic effect [CPE] (3days) Average [1, 7]: 1.25 | Cytopathic effect [CPE] (5days) Average [1, 7]: 1.5 | Cytopathic effect [CPE] (3days) △CPE [1, 7]: 0.25 | Cytopathic effect [CPE] (5days) △CPE [1, 7]: 0.25 | Cytopathic effect [CPE] (3days) Average [1, 8]: 1.5 | Cytopathic effect [CPE] (5days) Average [1, 8]: 2.0 | Cytopathic effect [CPE] (3days) △CPE [1, 8]: 0 | Cytopathic effect [CPE] (5days) △CPE [1, 8]: 0.25 | Cytopathic effect [CPE] (3days) Average [1, 9]: 0.125 | Cytopathic effect [CPE] (6days) Average [1, 9]: 0.5 | Cytopathic effect [CPE] (3days) ΔCPE [1, 9]: 2.625 | Cytopathic effect [CPE] (6days) ΔCPE [1, 9]: 2.5 | Cytopathic effect [CPE] (3days) Average [1, 10]: 0.75 | Cytopathic effect [CPE] (5days) Average [1, 10]: 1.0 | Cytopathic effect [CPE] (3days) △CPE [1, 10]: 0.375 | Cytopathic effect [CPE] (5days) △CPE [1, 10]: 0.75 | Cytopathic effect [CPE] (3days) Average [1, 11]: 0 | Cytopathic effect [CPE] (6days) Average [1, 11]: 0 | Cytopathic effect [CPE] (3days) ΔCPE [1, 11]: 2.75 | Cytopathic effect [CPE] (6days) ΔCPE [1, 11]: 3.0 | Cytopathic effect [CPE] (3days) Average ([2]; 5 μg/ml, Example 4): 1.0 | Cytopathic effect [CPE] (5days) Average ([2]; 5 μg/ml, Example 4): 2.5 | Cytopathic effect [CPE] (3days) △CPE ([2]; 5 μg/ml, Example 4): 0.5 | Cytopathic effect [CPE] (5days) △CPE ([2]; 5 μg/ml, Example 4): 0.5 | Cytopathic effect [CPE] (3days) Average ([2]; 10 μg/ml, Example 4): 1.0 | Cytopathic effect [CPE] (5days) Average ([2]; 10 μg/ml, Example 4): 2.0 | Cytopathic effect [CPE] (3days) △CPE ([2]; 10 μg/ml, Example 4): 0.5 | Cytopathic effect [CPE] (5days) △CPE ([2]; 10 μg/ml, Example 4): 1.0 | Cytopathic effect [CPE] (3days) Average ([2]; 20 μg/ml, Example 4): 1.0 | Cytopathic effect [CPE] (5days) Average ([2]; 20 μg/ml, Example 4): 1.25 | Cytopathic effect [CPE] (3days) △CPE ([2]; 20 μg/ml, Example 4): 0.5 | Cytopathic effect [CPE] (5days) △CPE ([2]; 20 μg/ml, Example 4): 1.75 | Cytopathic effect [CPE] (3days) Average ([2]; 50 μg/ml, Example 4): 0.5 | Cytopathic effect [CPE] (5days) Average ([2]; 50 μg/ml, Example 4): 0.5 | Cytopathic effect [CPE] (3days) △CPE ([2]; 50 μg/ml, Example 4): 1.0 | Cytopathic effect [CPE] (5days) △CPE ([2]; 50 μg/ml, Example 4): 2.5 | Cytopathic effect [CPE] (3days) Average ([2]; 100 μg/ml, Example 4): 0 | Cytopathic effect [CPE] (5days) Average ([2]; 100 μg/ml, Example 4): 0 | Cytopathic effect [CPE] (3days) △CPE ([2]; 100 μg/ml, Example 4): 1.5 | Cytopathic effect [CPE] (5days) △CPE ([2]; 100 μg/ml, Example 4): 3.05 | Cytopathic effect [CPE] (3days) Average ([2]; 100 μg/ml, Example 6): 0 | Cytopathic effect [CPE] (6days) Average ([2]; 100 μg/ml, Example 6): 0 | Cytopathic effect [CPE] (3days) △CPE ([2]; 100 μg/ml, Example 6): 2.5 | Cytopathic effect [CPE] (6days) △CPE ([2]; 100 μg/ml, Example 6): 3.0 | Cytopathic effect [CPE] (3days) Average ([2]; 200 μg/ml, Example 6): 0 | Cytopathic effect [CPE] (6days) Average ([2]; 200 μg/ml, Example 6): 0 | Cytopathic effect [CPE] (3days) △CPE ([2]; 200 μg/ml, Example 6): 2.5 | Cytopathic effect [CPE] (6days) △CPE ([2]; 200 μg/ml, Example 6): 3.0 | Cytopathic effect [CPE] (3days) Average ([3]; 100 μg/ml): 0 | Cytopathic effect [CPE] (5days) Average ([3]; 100 μg/ml): 0 | Cytopathic effect [CPE] (3days) △CPE ([3]; 100 μg/ml): 2.0 | Cytopathic effect [CPE] (5days) △CPE ([3]; 100 μg/ml): 3.0 | Cytopathic effect [CPE] (3days) Average ([3]; 200 μg/ml): 0 | Cytopathic effect [CPE] (5days) Average ([3]; 200 μg/ml): 0 | Cytopathic effect [CPE] (3days) △CPE ([3]; 200 μg/ml): 2.0 | Cytopathic effect [CPE] (5days) △CPE ([3]; 200 μg/ml): 3.0 | Cytopathic effect [CPE] (3days) TCID50 ([4]; 100 μg/ml): 3.5 | Cytopathic effect [CPE] (5days) TCID50 ([4]; 100 μg/ml): 3.5 | Cytopathic effect [CPE] (3days) △TCID50 ([4]; 100 μg/ml): 2.0 | Cytopathic effect [CPE] (5days) △TCID50 ([4]; 100 μg/ml): 2.5 | Cytopathic effect [CPE] (3days) TCID50 ([4]; 200 μg/ml): 3.5 | Cytopathic effect [CPE] (5days) TCID50 ([4]; 200 μg/ml): 3.5 | Cytopathic effect [CPE] (3days) △TCID50 ([4]; 200 μg/ml): 2.0 | Cytopathic effect [CPE] (5days) △TCID50 ([4]; 200 μg/ml): 2.5 | Intracellular virus Average ([5]; 50 μg/ml, extracellular virus): 7.13×10^5 /dish | Intracellular virus Control ratio % ([5]; 50 μg/ml, extracellular virus): 97.6% | Intracellular virus Control ratio -logT/C ([5]; 50 μg/ml, extracellular virus): 1.623 | Intracellular virus Average ([5]; 50 μg/ml): 1.34×10^6 /dish | Intracellular virus Control ratio % ([5]; 50 μg/ml): 99.7% | Intracellular virus Control ratio -logT/C ([5]; 50 μg/ml): 2.482 | Intracellular virus Average ([5]; 100 μg/ml, extracellular virus): 8.38×10^4 /dish | Intracellular virus Control ratio % ([5]; 100 μg/ml, extracellular virus): 99.7% | Intracellular virus Control ratio -logT/C ([5]; 100 μg/ml, extracellular virus): 2.554 | Intracellular virus Average ([5]; 100 μg/ml): 1.99×10^6 /dish | Intracellular virus Control ratio -logT/C ([5]; 100 μg/ml): 7.211 | Intracellular virus Control ratio % ([5]; 100 μg/ml, 1440 min): >99.9% | Intracellular virus Control ratio -logT/C ([5]; 200 μg/ml, extracellular virus): 5.778 | Intracellular virus Control ratio % ([5]; 200 μg/ml, extracellular virus, 1440 min): >99.9% | Intracellular virus Control ratio -logT/C ([5]; 200 μg/ml): > 7.211 | Intracellular virus Control ratio % ([5]; 200 μg/ml, 1440 min): >99.9% | control of the intracellular and extracellular viruses in the one-step growth ([5]; concentration not given, 1440 min): not less than 99.9%
